Measured values: patent US11332620B2, “Solution comprising a dye” (NOURYON CHEMICALS INTERNATIONAL B.V., priority 2018, dated 2022)

Test: Dissolution of dye powder in CP/DMSO 80/20 mixture
Type: physicochemical
Conditions: stirred 24 hours at room temperature

| Structure (SMILES) | Dissolution in CP/DMSO 80/20 mixture (2.5 gram powder in 22.5 grams CP/DMSO 80/20, followed by 4 hours at 40° C.) | Dissolution in CP/DMSO 80/20 mixture (2.5 grams powder in 22.5 grams CP/DMSO 80/20) |
| --- | --- | --- |
| CCN(CCO)c1ccc(N=Nc2ccc([N+](=O)[O-])cc2)cc1 [Disperse Red 1, N-Ethyl-N-(2-hydroxyethyl)-4-(4-nitrophenylazo)aniline] | completely dissolved |  |
| CC(=O)OCCN(CCC#N)c1ccc(N=Nc2nc3ccc([N+](=O)[O-])cc3s2)cc1 [Disperse Red 177, 2-((2-cyanoethyl)(4-((6-nitrobenzothiazol-2-yl)azo)phenyl)amino)ethyl acetate] |  | completely dissolved |
